Several values for one entry are separate records, joined by “and”; a condition that tells them apart may be missing. Equal values may be shown once. Entries after “also recorded” stand apart in the source; their conditions may differ.
Assays:
[1] = test system: GABA Cl- channel (GABA-gated); experiment: Radioligand binding, [35S]TBPS; design: species or system rat; details: 10 µM; listed as Benzopyran-G1 (SR)
5-HT2A = target: T1, 5-HT2A (Homo sapiens, UniProt P28223); experiment: Radioligand binding, [3H]ketanserin; details: read-out: % Specific Binding at 10 µM
T1 construct: expressed in transfected cells; host or cells: HEK-293 cells

Opioid Kappa = target: T2, Opioid Kappa (Rattus norvegicus, UniProt P34975); experiment: Radioligand binding, [3H]U 69593; details: read-out: % Specific Binding at 10 µM
T2 construct: expressed in transfected cells; host or cells: CHO cells

Kir3.1/2 channel = target: T3, Kir3.1/2 channel (UniProt P48542+P48549); experiment: TEVC in Xenopus oocytes, Kir3.1/2; type: cell-based, human Kir3.1, mouse Kir3.2; design: expressed in transfected cells; details: TEVC
T3 sequence (P48549 1-501): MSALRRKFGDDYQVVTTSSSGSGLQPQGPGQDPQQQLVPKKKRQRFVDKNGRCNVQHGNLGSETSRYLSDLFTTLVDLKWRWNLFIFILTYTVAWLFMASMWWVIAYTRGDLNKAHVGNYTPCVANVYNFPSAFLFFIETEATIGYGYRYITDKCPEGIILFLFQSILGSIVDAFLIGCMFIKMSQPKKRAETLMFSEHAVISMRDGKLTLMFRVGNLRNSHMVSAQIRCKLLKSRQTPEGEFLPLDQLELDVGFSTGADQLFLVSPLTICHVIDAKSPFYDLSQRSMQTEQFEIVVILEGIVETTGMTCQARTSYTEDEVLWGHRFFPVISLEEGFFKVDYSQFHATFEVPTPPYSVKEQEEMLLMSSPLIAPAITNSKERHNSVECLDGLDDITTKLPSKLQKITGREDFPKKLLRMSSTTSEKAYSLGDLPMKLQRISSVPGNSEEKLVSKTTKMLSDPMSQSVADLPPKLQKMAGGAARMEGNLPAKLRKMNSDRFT
T3 sequence (P48542 1-425): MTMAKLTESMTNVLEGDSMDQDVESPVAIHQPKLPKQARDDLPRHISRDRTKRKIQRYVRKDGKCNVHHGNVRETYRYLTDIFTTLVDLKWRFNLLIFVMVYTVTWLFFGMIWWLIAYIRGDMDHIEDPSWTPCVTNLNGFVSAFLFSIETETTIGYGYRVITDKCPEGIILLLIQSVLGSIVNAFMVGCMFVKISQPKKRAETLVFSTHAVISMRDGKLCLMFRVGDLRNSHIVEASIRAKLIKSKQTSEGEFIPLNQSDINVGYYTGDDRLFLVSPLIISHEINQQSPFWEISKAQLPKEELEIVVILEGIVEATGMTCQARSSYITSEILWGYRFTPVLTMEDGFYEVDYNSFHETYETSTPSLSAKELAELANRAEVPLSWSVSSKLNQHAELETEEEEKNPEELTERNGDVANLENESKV
Method: (§1) X. laevis oocytes were isolated and microinjected as previously described ([6]). Human Kir3.1, mouse Kir3.2, and human Kir3.4 DNA constructs were used for electrophysiology experiments. All cRNA constructs were injected in the amount of 2 ng per oocyte. Injected oocytes were incubated for 2 to 3 days at 18 °C to allow for expression. Whole-cell oocyte currents were then measured using a GeneClamp 500 amplifier (Axon Instruments). Microelectrodes had resistances of 0.5 to 1 megohm using a 3M KCl solution in 1.4% agarose. Oocytes were perfused with a low K^+ (LK) solution ND96 (2 mM KCl, 96 mM NaCl, 1 mM MgCl2, 1.8 mM CaCl2, 5 mM HEPES-Na) to establish a baseline for the recordings. Basal current was measured in a high potassium (HK) solution ND96K (96 mM KCl, 10 mM HEPES-K, 1 mM MgCl2, 1.8 mM CaCl2). To block the current, the oocyte chamber was perfused with 4 mM BaCl2 in ND96K. Only the Barium-sensitive current was used for statistical analysis. To measure the inhibitory activity of the channels, 1 μM BP-G1 in ND96K (HK) was used. Typically, oocytes were held at 0 mV (EK) and the current was monitored constantly using a ramp protocol with a command potential from −80 to +80 mV. Current amplitude was measured at the end of a 1 s sweep. All currents were analyzed when they reached steady state. Error bars in the figures represent SD (N > 4).

Kir3.1/4 channel = target: T4, Kir3.1/4 channel (Homo sapiens, UniProt P48544+P48549); experiment: TEVC in Xenopus oocytes, Kir3.1/4; type: cell-based; design: expressed in transfected cells; host or cells: Xenopus laevis oocytes (cRNA injection); details: 1 μM, TEVC
T4 sequence (P48549 1-501): T3 sequence (P48549 1-501)
T4 sequence (P48544 1-419): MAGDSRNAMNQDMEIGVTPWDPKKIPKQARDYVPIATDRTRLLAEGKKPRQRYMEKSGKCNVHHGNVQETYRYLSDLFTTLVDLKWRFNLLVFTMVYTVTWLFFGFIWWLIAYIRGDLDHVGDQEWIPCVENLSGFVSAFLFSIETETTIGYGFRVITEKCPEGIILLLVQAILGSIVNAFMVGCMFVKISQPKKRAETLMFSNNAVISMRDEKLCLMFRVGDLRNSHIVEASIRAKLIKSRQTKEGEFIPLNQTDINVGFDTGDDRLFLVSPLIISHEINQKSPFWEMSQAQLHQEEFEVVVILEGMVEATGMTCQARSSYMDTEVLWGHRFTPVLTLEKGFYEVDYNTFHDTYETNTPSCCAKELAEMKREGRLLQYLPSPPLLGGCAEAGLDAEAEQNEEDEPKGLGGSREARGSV
Method: as §1

Histamine H2 = target: T5, Histamine H2 (Homo sapiens, UniProt P25021); experiment: Radioligand binding, [125I]APT; details: read-out: % Specific Binding at 10 µM
T5 construct: expressed in transfected cells; host or cells: CHO cells

[2] = target: T6, Non-steroid nuclear receptors PPARγ (Homo sapiens, UniProt P37231); experiment: Radioligand binding, [3H]rosiglitazone; details: read-out: % Specific Binding at 10 µM
T6 construct: purchased; host or cells: E. coli

Neurokinin NK1 = target: T7, Neurokinin NK1 (Homo sapiens, UniProt P25103); experiment: Radioligand binding, [125I]-Substance P LYS3, U373MG uppsala; details: read-out: % Specific Binding at 10 µM
T7 construct: endogenous in cells; host or cells: U373MG uppsala

Dopamine transporter = target: T8, Dopamine transporter (Homo sapiens, UniProt Q01959); experiment: Radioligand binding, [3H]BTCP; details: 10 µM; read-out: % Specific Binding at 10 µM
T8 construct: expressed in transfected cells; host or cells: CHO cells

IKACh = experiment: In vivo ECG, carbachol-induced heart rate slowing in anesthetized mice
Method: We tested the in vivo effects of BP-G1 versus those of BP-G1(SR) on heart rate in anesthetized adult mice (Fig. 8). ECG was continuously recorded. Panel A is the ECG showing that after carbachol (300 μl of 200 μM) was administered, i.p. (red mark), the heart decelerated, with a visible RR prolongation. About 10 min after carbachol injection, BP-G1 was delivered via the jugular vein (40 μl of 240 μM) (green mark). Within 5 min, there was a reversal of carbachol’s effects on the heart rate. Panel B is a control mouse showing heart rate slowing after carbachol administration (red mark).
Mice were anesthetized (1.5% isofluorane), and a 1.2 French octapolar catheter (Millar) with a drug delivery port was placed transvenously, through the jugular vein, into the right atrium. Continuous ECG was recorded using the Animal Bio Amp and PowerLab 4/35 Advanced Instruments apparatus. […] Saline control at the same volume was performed. Results are averages ±SD.

Ca = experiment: Radioligand binding; details: listed as Benzopyran-G1 (SR)
Nav = experiment: Radioligand binding, rat cerebral cortex

T6 sequence (P37231 whole entry): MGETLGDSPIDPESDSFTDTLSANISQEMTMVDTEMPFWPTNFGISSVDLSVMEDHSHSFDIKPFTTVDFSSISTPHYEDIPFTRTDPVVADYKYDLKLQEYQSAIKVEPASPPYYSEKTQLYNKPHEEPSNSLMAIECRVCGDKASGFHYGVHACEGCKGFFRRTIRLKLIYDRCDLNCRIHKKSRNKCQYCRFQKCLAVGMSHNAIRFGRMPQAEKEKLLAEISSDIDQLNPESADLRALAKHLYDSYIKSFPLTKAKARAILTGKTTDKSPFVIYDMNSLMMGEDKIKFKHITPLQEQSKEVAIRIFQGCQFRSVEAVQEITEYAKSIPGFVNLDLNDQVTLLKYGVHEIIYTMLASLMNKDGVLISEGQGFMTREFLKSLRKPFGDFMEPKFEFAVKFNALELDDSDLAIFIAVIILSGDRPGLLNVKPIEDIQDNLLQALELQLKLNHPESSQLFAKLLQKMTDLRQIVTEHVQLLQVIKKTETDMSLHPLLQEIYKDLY
T2 sequence (P34975 whole entry): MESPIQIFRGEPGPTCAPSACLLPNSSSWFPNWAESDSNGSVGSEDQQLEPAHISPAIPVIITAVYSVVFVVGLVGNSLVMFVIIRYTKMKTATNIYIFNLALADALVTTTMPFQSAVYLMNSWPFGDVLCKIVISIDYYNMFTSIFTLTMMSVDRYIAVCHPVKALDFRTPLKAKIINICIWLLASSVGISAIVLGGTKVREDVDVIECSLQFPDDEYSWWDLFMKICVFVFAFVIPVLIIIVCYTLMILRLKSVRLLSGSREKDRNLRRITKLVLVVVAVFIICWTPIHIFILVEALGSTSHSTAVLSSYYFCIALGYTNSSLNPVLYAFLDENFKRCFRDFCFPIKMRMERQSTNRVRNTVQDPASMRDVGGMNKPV
T1 sequence (P28223 whole entry): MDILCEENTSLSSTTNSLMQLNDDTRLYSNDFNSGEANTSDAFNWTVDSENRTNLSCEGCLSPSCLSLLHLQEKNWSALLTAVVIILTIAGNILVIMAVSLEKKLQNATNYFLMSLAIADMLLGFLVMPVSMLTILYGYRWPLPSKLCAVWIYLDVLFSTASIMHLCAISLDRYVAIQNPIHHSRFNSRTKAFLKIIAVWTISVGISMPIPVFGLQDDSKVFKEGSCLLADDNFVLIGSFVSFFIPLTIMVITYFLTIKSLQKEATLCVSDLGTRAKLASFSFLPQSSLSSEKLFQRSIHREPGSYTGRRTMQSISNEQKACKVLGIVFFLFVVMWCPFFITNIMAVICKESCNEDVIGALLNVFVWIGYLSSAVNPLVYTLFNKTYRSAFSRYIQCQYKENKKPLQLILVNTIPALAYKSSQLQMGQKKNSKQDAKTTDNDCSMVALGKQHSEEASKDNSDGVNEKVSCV
T8 sequence (Q01959 whole entry): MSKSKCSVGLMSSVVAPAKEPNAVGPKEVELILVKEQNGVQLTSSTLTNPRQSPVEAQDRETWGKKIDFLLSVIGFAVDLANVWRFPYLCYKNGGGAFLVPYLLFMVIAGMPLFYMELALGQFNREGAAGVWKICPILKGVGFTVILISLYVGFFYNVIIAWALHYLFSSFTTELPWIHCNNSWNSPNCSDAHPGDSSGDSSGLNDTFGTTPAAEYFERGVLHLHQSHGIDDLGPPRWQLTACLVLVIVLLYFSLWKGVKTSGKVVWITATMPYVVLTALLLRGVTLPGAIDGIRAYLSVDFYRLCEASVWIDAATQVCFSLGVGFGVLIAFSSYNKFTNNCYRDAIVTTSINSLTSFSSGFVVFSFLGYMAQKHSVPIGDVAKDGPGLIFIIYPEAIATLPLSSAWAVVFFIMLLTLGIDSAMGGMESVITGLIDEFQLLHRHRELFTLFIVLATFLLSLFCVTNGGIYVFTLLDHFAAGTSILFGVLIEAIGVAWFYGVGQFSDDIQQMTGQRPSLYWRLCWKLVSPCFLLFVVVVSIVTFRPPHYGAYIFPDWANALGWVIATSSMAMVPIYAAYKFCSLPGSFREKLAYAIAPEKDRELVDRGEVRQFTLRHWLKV
T5 sequence (P25021 whole entry): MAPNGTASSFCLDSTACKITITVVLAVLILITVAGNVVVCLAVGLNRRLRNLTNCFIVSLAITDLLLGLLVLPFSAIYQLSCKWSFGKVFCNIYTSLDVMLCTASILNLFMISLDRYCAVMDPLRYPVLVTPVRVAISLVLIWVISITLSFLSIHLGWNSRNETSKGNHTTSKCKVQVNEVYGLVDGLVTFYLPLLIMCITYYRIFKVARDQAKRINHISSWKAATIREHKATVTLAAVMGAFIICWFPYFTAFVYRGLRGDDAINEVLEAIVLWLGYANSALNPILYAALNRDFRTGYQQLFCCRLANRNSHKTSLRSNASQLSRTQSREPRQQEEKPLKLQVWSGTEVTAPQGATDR
T7 sequence (P25103 whole entry): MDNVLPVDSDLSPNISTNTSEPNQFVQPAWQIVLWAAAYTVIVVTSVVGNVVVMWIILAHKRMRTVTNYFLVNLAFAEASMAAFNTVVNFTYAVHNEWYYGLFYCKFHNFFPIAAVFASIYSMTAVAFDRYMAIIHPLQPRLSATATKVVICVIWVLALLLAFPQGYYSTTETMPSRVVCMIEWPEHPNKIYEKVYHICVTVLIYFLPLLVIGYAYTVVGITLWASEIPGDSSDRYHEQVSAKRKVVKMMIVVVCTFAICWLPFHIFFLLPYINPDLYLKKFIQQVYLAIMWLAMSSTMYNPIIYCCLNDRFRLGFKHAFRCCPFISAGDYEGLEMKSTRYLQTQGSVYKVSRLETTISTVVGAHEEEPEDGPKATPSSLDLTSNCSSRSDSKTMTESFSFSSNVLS

## Cc1cc(CO)nc2cc3c(cc12)OC(C)(C)[C@@H](O)[C@@H]3NCCc1ccccc1 [BP-G1(SR), (3S,4R)-7-(hydroxymethyl)-2,2,9-trimethyl-4-(2-phenylethylamino)-3,4-dihydropyrano[2,3-g]quinolin-3-ol]
[1]
  % Specific Binding at 10 µM: < 50%
5-HT2A
  inhibition at 10 µM: 46.4%
Opioid Kappa
  inhibition at 10 µM: 31.3%
Kir3.1/2 channel
  inhibitory activity on Kir3.1/2 channel: nominally inhibits; also recorded: unable to effectively inhibit
Kir3.1/4 channel
  inhibitory activity on Kir3.1/4 channel: nominally inhibits; also recorded: unable to effectively inhibit
Histamine H2
  inhibition at 10 µM: 83.6%
[2]
  inhibition at 10 µM: 58.3%
Neurokinin NK1
  inhibition at 10 µM: 64.2%
Dopamine transporter
  inhibition at 10 µM: 44.6%
IKACh; 40 μl of 240 μM via jugular vein, anesthetized mice, mean ± SD, N = 3
  RR interval 5 min after compound, given about 10 min after carbachol: 551.6 ± 185 ms
IKACh; 40 μl via jugular vein
  heart rate recovery after carbachol: the heart rate did not recover to baseline
Ca
  % Specific Binding at 10 µM: 28.633% and < 50%
Nav
  % Specific Binding at 10 µM: 68.800%

Source: paper PMC8086025, “A benzopyran with antiarrhythmic activity is an inhibitor of Kir3.1-containing potassium channels” (The Journal of Biological Chemistry, 2021)
